According to patent US9334269B2, “Carboxamides as inhibitors of voltage-gated sodium channels” (AMGEN INC., priority 2010, dated 2016):

Molecular target: T1, human Nav1.7 (hNav1.7) (Homo sapiens, UniProt Q15858)
T1 construct: expressed in transfected cells
Assay: hNav1.7 whole-cell patch-clamp electrophysiology (automated PatchXpress 7000A or manual) in stably expressing 293 cells
Assay type: cell-based
Conditions: average IC50
Summary of the method: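 Stably transfected 293 cells lacking endogenous sodium channels; peak current evoked by depolarizing pulses during increasing compound concentrations, automated at ~20% fractional inactivation, or manually at −140 mV (resting) and ~20% inactivation. Block taken at steady state, corrected for rundown; IC50 by Hill fit.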

T1 sequence (Q15858 whole entry): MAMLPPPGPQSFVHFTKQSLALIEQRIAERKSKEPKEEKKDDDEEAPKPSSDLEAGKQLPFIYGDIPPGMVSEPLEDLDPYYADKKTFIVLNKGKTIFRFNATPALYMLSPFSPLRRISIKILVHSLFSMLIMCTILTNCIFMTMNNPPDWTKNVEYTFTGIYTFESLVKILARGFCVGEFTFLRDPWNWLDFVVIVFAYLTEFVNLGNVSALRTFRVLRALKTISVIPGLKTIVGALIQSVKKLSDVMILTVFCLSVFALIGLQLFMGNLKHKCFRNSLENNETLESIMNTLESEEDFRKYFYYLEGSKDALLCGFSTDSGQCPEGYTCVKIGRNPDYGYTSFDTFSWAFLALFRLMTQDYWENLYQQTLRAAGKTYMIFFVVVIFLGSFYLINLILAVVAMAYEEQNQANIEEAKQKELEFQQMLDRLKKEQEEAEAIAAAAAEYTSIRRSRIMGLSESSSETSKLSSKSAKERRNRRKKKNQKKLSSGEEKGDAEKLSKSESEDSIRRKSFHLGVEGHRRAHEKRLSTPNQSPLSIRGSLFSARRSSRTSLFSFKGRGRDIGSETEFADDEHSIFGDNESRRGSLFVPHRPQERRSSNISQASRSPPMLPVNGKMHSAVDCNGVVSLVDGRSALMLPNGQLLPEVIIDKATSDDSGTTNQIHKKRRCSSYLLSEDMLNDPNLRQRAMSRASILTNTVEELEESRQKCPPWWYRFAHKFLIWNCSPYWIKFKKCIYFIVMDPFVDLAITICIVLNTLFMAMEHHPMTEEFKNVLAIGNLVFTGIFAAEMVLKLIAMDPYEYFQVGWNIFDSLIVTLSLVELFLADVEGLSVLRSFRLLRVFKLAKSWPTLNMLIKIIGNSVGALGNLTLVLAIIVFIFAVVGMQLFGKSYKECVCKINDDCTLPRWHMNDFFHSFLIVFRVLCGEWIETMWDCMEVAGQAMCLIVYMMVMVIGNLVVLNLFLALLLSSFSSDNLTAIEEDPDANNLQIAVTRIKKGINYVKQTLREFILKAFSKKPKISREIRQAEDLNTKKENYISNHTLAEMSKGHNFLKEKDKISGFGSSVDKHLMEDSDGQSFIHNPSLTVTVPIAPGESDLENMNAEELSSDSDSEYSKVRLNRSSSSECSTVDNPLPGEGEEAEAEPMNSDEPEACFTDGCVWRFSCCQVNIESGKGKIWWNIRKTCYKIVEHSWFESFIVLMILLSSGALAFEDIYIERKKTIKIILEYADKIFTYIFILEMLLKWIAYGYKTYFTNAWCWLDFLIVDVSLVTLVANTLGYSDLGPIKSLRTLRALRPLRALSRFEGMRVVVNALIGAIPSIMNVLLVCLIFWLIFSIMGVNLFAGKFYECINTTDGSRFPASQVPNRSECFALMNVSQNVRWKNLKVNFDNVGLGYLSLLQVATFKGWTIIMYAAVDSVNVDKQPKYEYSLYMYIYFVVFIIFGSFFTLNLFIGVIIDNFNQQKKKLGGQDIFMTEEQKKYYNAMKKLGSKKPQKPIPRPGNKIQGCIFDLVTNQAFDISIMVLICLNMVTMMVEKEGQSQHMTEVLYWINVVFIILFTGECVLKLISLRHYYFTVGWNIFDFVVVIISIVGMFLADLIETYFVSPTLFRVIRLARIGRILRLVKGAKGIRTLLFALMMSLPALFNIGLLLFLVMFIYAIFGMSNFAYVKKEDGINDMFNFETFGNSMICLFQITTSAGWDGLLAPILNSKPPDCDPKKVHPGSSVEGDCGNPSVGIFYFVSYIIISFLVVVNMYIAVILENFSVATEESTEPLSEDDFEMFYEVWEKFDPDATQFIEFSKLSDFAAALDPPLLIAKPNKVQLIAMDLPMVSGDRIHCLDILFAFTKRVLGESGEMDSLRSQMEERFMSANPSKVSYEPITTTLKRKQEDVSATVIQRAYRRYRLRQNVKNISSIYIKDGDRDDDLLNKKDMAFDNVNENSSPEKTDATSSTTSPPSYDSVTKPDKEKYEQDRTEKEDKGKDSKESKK

SMILES	IC50 [µM]
CNC(=O)c1cccc(Nc2ncnc(N3CCc4cc(C#N)ccc4C3)n2)c1 [Example 299]	> 30

Same assay, conditions: human Nav1.7 stably expressed in 293 cells; whole-cell patch clamp; average IC50 from Hill fit

SMILES	IC50 [µM]
CNC(=O)c1cccc(Nc2nccc(N3CC(Oc4ccc(Cl)c(Cl)c4)C3)n2)c1 [Example A, 3-(4-(3-(3,4-dichlorophenoxy)azetidin-1-yl)pyrimidin-2-ylamino)-N-methylbenzamide]	0.78
CNC(=O)c1cccc(Nc2ccnc(N3CC(Oc4ccc(Cl)cc4F)C3)c2)c1 [Example AA, 3-((2-(3-(4-chloro-2-fluorophenoxy)-1-azetidinyl)-4-pyridinyl)amino)-N-methylbenzamide]	7.15
CNC(=O)c1cccc(Nc2nccc(N3CC(Oc4ccc(Cl)cc4Cl)C3)n2)c1 [Example AAA, 3-(4-(3-(2,4-dichlorophenoxy)azetidin-1-yl)pyrimidin-2-ylamino)-N-methylbenzamide]	0.52
CNC(=O)c1cccc(Nc2ncnc(N3CC(Oc4ccc(Cl)cc4F)C3)c2F)c1 [Example AB, 3-((6-(3-(4-chloro-2-fluorophenoxy)-1-azetidinyl)-5-fluoro-4-pyrimidinyl)-amino)-N-methylbenzamide]	> 30
CNC(=O)c1cccc(Nc2ccnc(NCCCOc3ccc(OC(F)(F)F)cc3)n2)c1 [Example AC, N-methyl-3-((2-((3-(4-(trifluoromethoxy)phenoxy)propyl)amino)-4-pyrimidinyl)amino)benzamide]	1.17
CNC(=O)c1cccc(Nc2ncnc(N3CCC(OCc4ccc(OC(F)(F)F)cc4)CC3)n2)c1C [Example AD, N,2-dimethyl-3-((4-(4-((4-(trifluoromethoxy)benzyl)oxy)-1-piperidinyl)-1,3,5-triazin-2-yl)amino)benzamide]	28.6
CNC(=O)c1cccc(Oc2ncnc(N3CC(Oc4ccc(Cl)cc4F)C3)n2)c1 [Example AE, 3-((4-(3-(4-chloro-2-fluorophenoxy)-1-azetidinyl)-1,3,5-triazin-2-yl)oxy)-N-methylbenzamide]	> 30
CNC(=O)c1cccc(Nc2cccc(N3CC(Oc4ccc(F)cc4)C3)c2)c1 [Example AF, 3-((3-(3-(4-fluorophenoxy)-1-azetidinyl)phenyl)amino)-N-methylbenzamide]	9.53
CNC(=O)c1cccc(Nc2cccc(N3CC(Oc4ccc(Cl)cc4F)C3)c2)c1 [Example AG, 3-((3-(3-(4-chloro-2-fluorophenoxy)-1-azetidinyl)phenyl)amino)-N-methylbenzamide]	> 30
CNC(=O)c1cccc(Nc2nc(N3CC(Oc4ccc(F)cc4)C3)ncc2F)c1 [Example AH, 3-((5-fluoro-2-(3-(4-fluorophenoxy)-1-azetidinyl)-4-pyrimidinyl)amino)-N-methylbenzamide]	0.34
CNC(=O)c1cccc(Nc2nccc(N3CCc4cc(OCC(F)(F)F)ccc4C3)n2)c1 [Example AI, N-methyl-3-((4-(6-(2,2,2-trifluoroethoxy)-3,4-dihydro-2(1H)-isoquinolinyl)-2-pyrimidinyl)amino)benzamide]	1.44
CNC(=O)c1cccc(Nc2ccnc(N3CC(Oc4ccc(Cl)cc4F)C3)n2)c1 [Example AJ, 3-((2-(3-(4-chloro-2-fluorophenoxy)-1-azetidinyl)-4-pyrimidinyl)amino)-N-methylbenzamide]	2.26
CNC(=O)c1cccc(Nc2nc(N3CC(Oc4ccc(Cl)cc4F)C3)ncc2F)c1 [Example AK, 3-((2-(3-(4-chloro-2-fluorophenoxy)-1-azetidinyl)-5-fluoro-4-pyrimidinyl)amino)-N-methylbenzamide]	0.43
CNC(=O)c1cccc(Nc2nccc(N3CC(Oc4ccc(C)cc4)C3)n2)c1 [Example B, N-methyl-3-((4-(3-(4-methylphenoxy)-1-azetidinyl)-2-pyrimidinyl)amino)benzamide]	2
CNC(=O)c1cccc(Nc2nccc(N3CC(Oc4ccc(C(F)(F)F)cc4)C3)n2)c1 [Example C, N-methyl-3-((4-(3-(4-(trifluoromethyl)phenoxy)-1-azetidinyl)-2-pyrimidinyl)amino)benzamide]	1.55
CNC(=O)c1cccc(Nc2nccc(N3CC(Oc4ccc(OC)cc4)C3)n2)c1 [Example D, 3-((4-(3-(4-methoxyphenoxy)-1-azetidinyl)-2-pyrimidinyl)amino)-N-methylbenzamide]	0.43
CNC(=O)c1cccc(Nc2nccc(N3CC(Oc4ccc(F)c(F)c4)C3)n2)c1 [Example E, 3-((4-(3-(3,4-difluorophenoxy)-1-azetidinyl)-2-pyrimidinyl)amino)-N-methylbenzamide]	1.6
CNC(=O)c1cccc(Nc2nccc(N3CC(Oc4ccc(F)c(Cl)c4)C3)n2)c1 [Example F, 3-((4-(3-(3-chloro-4-fluorophenoxy)-1-azetidinyl)-2-pyrimidinyl)amino)-N-methylbenzamide]	2.83

SMILES	IC50 [µM]
CNC(=O)c1cccc(Nc2nccc(N3CC(Oc4ccc(F)c(C)c4)C3)n2)c1 [Example G, 3-((4-(3-(4-fluoro-3-methylphenoxy)-1-azetidinyl)-2-pyrimidinyl)amino)-N-methylbenzamide]	1.41
CNC(=O)c1cccc(Nc2nccc(N3CC(Oc4ccc(F)cc4F)C3)n2)c1 [Example H, 3-((4-(3-(2,4-difluorophenoxy)-1-azetidinyl)-2-pyrimidinyl)amino)-N-methylbenzamide]	2.16
CNC(=O)c1cccc(Nc2nccc(N3CC(Oc4ccc(F)cc4Cl)C3)n2)c1 [Example I, 3-((4-(3-(2-chloro-4-fluorophenoxy)-1-azetidinyl)-2-pyrimidinyl)amino)-N-methylbenzamide]	0.63
CNC(=O)c1cccc(Nc2nccc(N3CC(Oc4ccc(F)cc4C)C3)n2)c1 [Example J, 3-((4-(3-(4-fluoro-2-methylphenoxy)-1-azetidinyl)-2-pyrimidinyl)amino)-N-methylbenzamide]	0.08
CNC(=O)c1cccc(Nc2nccc(N3CC(Oc4ccc(Cl)c(F)c4)C3)n2)c1 [Example K, 3-((4-(3-(4-chloro-3-fluorophenoxy)-1-azetidinyl)-2-pyrimidinyl)amino)-N-methylbenzamide]	0.74
CNC(=O)c1cccc(Nc2nccc(N3CC(Oc4ccc(Cl)c(C)c4)C3)n2)c1 [Example L, 3-((4-(3-(4-chloro-3-methylphenoxy)-1-azetidinyl)-2-pyrimidinyl)amino)-N-methylbenzamide]	0.31
CNC(=O)c1cccc(Nc2nccc(N3CC(Oc4ccc(Cl)cc4F)C3)n2)c1 [Example M, 3-((4-(3-(4-chloro-2-fluorophenoxy)-1-azetidinyl)-2-pyrimidinyl)amino)-N-methylbenzamide]	2.3
CNC(=O)c1cccc(Nc2nccc(N3CC(Oc4ccc(Cl)cc4C)C3)n2)c1 [Example N, 3-((4-(3-(4-chloro-2-methylphenoxy)-1-azetidinyl)-2-pyrimidinyl)amino)-N-methylbenzamide]	0.26
CNC(=O)c1cccc(Nc2nccc(N3CC(COc4ccc(Cl)cc4)C3)n2)c1 [Example O, 3-((4-(3-((4-chlorophenoxy)methyl)-1-azetidinyl)-2-pyrimidinyl)amino)-N-methylbenzamide]	2.55
CNC(=O)c1cccc(Nc2ncnc(N3CC(Oc4ccc(Cl)cc4F)C3)n2)c1 [Example Q, 3-(4-(3-(4-chloro-2-fluorophenoxy)azetidin-1-yl)-1,3,5-triazin-2-ylamino)-N-methylbenzamide]	2.99
CCNC(=O)c1cccc(Nc2ncnc(N3CC(Oc4ccc(Cl)cc4F)C3)n2)c1 [Example R, 3-(4-(3-(4-chloro-2-fluorophenoxy)azetidin-1-yl)-1,3,5-triazin-2-ylamino)-N-ethylbenzamide]	1.14
CNC(=O)c1cc(F)cc(Nc2ncnc(N3CC(Oc4ccc(Cl)cc4F)C3)n2)c1 [Example S, 3-(4-(3-(4-chloro-2-fluorophenoxy)azetidin-1-yl)-1,3,5-triazin-2-ylamino)-5-fluoro-N-methylbenzamide]	> 30
CNC(=O)c1cccc(Nc2cc(N3CC(Oc4ccc(Cl)cc4F)C3)ccn2)c1 [Example T, 3-(4-(3-(4-chloro-2-fluorophenoxy)azetidin-1-yl)pyridin-2-ylamino)-N-methylbenzamide]	4.5
CNC(=O)c1cccc(Nc2nc(C)nc(N3CC(Oc4ccc(Cl)cc4F)C3)n2)c1 [Example U, 3-(4-(3-(4-chloro-2-fluorophenoxy)azetidin-1-yl)-6-methyl-1,3,5-triazin-2-ylamino)-N-methylbenzamide]	> 30
CNC(=O)c1cccc(Nc2ccnc(N3CC(Oc4ccc(F)cc4)C3)c2)c1 [Example V, 3-((2-(3-(4-fluorophenoxy)-1-azetidinyl)-4-pyridinyl)amino)-N-methylbenzamide]	5.78
CNC(=O)c1cccc(Nc2cccc(N3CC(Oc4ccc(Cl)cc4F)C3)n2)c1 [Example W, 3-((6-(3-(4-chloro-2-fluorophenoxy)-1-azetidinyl)-2-pyridinyl)amino)-N-methylbenzamide]	2.78
CNC(=O)c1cc(Nc2cccc(N3CC(Oc4ccc(Cl)cc4F)C3)n2)ccc1F [Example X, 5-((6-(3-(4-chloro-2-fluorophenoxy)-1-azetidinyl)-2-pyridinyl)amino)-2-fluoro-N-methylbenzamide]	4.46
CNC(=O)c1cccc(Nc2cc(N3CC(Oc4ccc(Cl)cc4F)C3)ncn2)c1 [Example Z, 3-((6-(3-(4-chloro-2-fluorophenoxy)-1-azetidinyl)-4-pyrimidinyl)amino)-N-methylbenzamide]	12.7
